In the assay the test system is NCI-H295R. Put plainly: IC50 (antiproliferative, ATP content). Particulars: 48 h. The gist of the method:
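Compounds were pin-transferred at 8 final concentrations between 0.6 nM and 46 µM onto adrenocortical carcinoma cells (1500 per well, 1536-well plates) that had been cultured overnight in serum-free DMEM with ITS. Plates then stood 48 h at 37 °C, 5% CO2, and ATP was detected by CellTiter-Glo luminescence. IC50 was derived from logistic fits of normalised signal, and compounds giving no concentration response were noted as above the top dose.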
Regarding `O=C(O)Cn1c(C(=O)Nc2nc(-c3ccccc3Cl)cs2)cc2ccccc21`, the IC50 was above 46 µM.
In turn, `CN(C)[C@@H]1C(O)=C(C(=O)NCN2CCCC2)C(=O)[C@@]2(O)C(O)=C3C(=O)c4c(O)cccc4[C@@](C)(O)C3C[C@@H]12.Cl` (some centres undefined) returned a half-maximal inhibitory concentration (IC50) above 46 µM.
In the case of `N#CC2=CC=C1[C@@](OCC1=C2)([C@]3=CC=C(C=C3)F)CCCN(C)C.OC(C(O)=O)=O`, the 50% inhibitory concentration (IC50) was above 46 µM.
`Nc1ncnc2c1ncn2[C@@H]1O[C@H](COP(=O)(O)OP(=O)(O)OP(=O)(O)O)[C@@H](O)[C@H]1O` returned a concentration for half-maximal inhibition (IC50) above 46 µM.
On to `COc1ccc2c(c1)N(C[C@H](C)CN(C)C)c1ccccc1S2.O=C(O)/C=C\C(=O)O`, for which the IC50 is above 46 µM.
`O=C(O)CCc1nc(-c2ccccc2)c(-c2ccccc2)o1` had an IC50 above 46 µM.
As to `C=CCCCCCCCCC(=O)OC`, the IC50 is above 46 µM.
On to `CN(C)C(=S)SC(=S)N(C)C`, for which the IC50 was above 46 µM.
Compound `Cc1ccc(-c2ncc(Cl)cc2-c2ccc(S(C)(=O)=O)cc2)cn1` showed an IC50 above 46 µM.
The compound `N[C@@H](CCC(=O)N[C@@H](CS)C(=O)NCC(=O)O)C(=O)O` registered an IC50 above 46 µM.
`CNCc1ccccc1.Cl` came in with a 50% inhibitory concentration (IC50) above 46 µM.
`CC(=O)OCC(=O)[C@@]12OC3(CCCC3)O[C@@H]1C[C@H]1C3CCC4=CC(=O)C=C[C@]4(C)[C@@]3(F)[C@@H](O)C[C@@]12C` (some centres undefined) gave a concentration for half-maximal inhibition (IC50) above 46 µM.
The same measure for `O.O=C(/C=C/C(O)c1ccc(Cl)cc1)[O][Na]` (centres undefined): above 46 µM.
Turning to `CNC1(c2ccccc2Cl)CCCCC1=O` (centres undefined), the IC50 was above 46 µM.
The figure for `CC(=O)Oc1ccc(C)cc1` is above 46 µM; for `OC[C@H]1O[C@@H]2O[C@H]3[C@H](O)[C@@H](O)[C@@H](O[C@H]4[C@H](O)[C@@H](O)[C@@H](O[C@H]5[C@H](O)[C@@H](O)[C@@H](O[C@H]6[C@H](O)[C@@H](O)[C@@H](O[C@H]7[C@H](O)[C@@H](O)[C@@H](O[C@H]8[C@H](O)[C@@H](O)[C@@H](O[C@H]1[C@H](O)[C@H]2O)O[C@@H]8CO)O[C@@H]7CO)O[C@@H]6CO)O[C@@H]5CO)O[C@@H]4CO)O[C@@H]3CO` it is above 46 µM; for `COc1ccc2c(c1)c1c3n2CCN(C)C3=NCC1` it is above 46 µM.
`CC(O)CCCCn1c(=O)c2c(ncn2C)n(C)c1=O` (centres undefined) displayed an IC50 above 46 µM.
Regarding `O=C(/C=C/c1cccc(F)c1)NC1CC1`, the IC50 was above 46 µM.
Regarding `Cl.O=C(Nc1ccccc1)OCC(CN1CCCCC1)OC(=O)Nc1ccccc1` (centres undefined), the IC50 is above 46 µM.
As to `Oc1cc(Cl)ccc1Oc1ccc(Cl)cc1Cl`, the IC50 was above 46 µM.
With `O=c1c(-c2ccc(O)cc2)coc2cc(O)cc(O)c12`, the half-inhibitory concentration (IC50) was above 46 µM.
With `O=[N+]([O-])c1cccc(S(=O)(=O)NCCNS(=O)(=O)c2cccc([N+](=O)[O-])c2)c1`, the half-inhibitory concentration (IC50) was above 46 µM.
The same measure for `C=1(C(\C(C(=O)OC)=C(/NC=1C)C)c3c2c(non2)ccc3)C(OC(C)C)=O` (centres undefined): above 46 µM; for `n\24c1c(CCN3[C@H]1[C@](/C=C/2C(=O)OCC)(CCC3)CC)c5c4cccc5`: above 46 µM; for `CCC(C)[C@@H](N)C(=O)O` (some centres undefined): above 46 µM.
The figure for `CN(C)CCOC(=O)COc1ccc(Cl)cc1.Cl` is above 46 µM; for `CCC(=O)c1c(O)cc(O)cc1O` it is above 46 µM.
On to `Cc1nnc2n1-c1ccc(Cl)cc1C(c1ccccc1)=NC2`, for which the IC50 was above 46 µM.
`O=C(C1CCCCC1)N1CC(=O)N2CCc3ccccc3C2C1` (centres undefined) returned an IC50 above 46 µM.
In the case of `CN1[C@@H]2CC[C@H]1C[C@@H](OC(=O)c1c[nH]c3ccccc13)C2`, the IC50 is above 46 µM.
With `O=C(O)CCNC(=O)c1ccc(/N=N/c2ccc(O)c(C(=O)O)c2)cc1`, the IC50 is above 46 µM.
`CC1(C)O[C@@H]2C[C@H]3[C@@H]4C[C@H](F)C5=CC(=O)CC[C@]5(C)[C@H]4[C@@H](O)C[C@]3(C)[C@]2(C(=O)CO)O1` registered an IC50 above 46 µM.
In the case of `CN1C(C)(C)CCCC1(C)C.O=C(O)[C@@H](O)[C@H](O)C(=O)O`, the IC50 is above 46 µM.
